Molecules are shown by their SMILES. Some results are limits rather than exact numbers.

The target of the experiment is T1, human muscarinic M3 receptor (Homo sapiens, UniProt P20309).
T1 construct: expressed in transfected cells
T1 sequence (P20309 whole entry): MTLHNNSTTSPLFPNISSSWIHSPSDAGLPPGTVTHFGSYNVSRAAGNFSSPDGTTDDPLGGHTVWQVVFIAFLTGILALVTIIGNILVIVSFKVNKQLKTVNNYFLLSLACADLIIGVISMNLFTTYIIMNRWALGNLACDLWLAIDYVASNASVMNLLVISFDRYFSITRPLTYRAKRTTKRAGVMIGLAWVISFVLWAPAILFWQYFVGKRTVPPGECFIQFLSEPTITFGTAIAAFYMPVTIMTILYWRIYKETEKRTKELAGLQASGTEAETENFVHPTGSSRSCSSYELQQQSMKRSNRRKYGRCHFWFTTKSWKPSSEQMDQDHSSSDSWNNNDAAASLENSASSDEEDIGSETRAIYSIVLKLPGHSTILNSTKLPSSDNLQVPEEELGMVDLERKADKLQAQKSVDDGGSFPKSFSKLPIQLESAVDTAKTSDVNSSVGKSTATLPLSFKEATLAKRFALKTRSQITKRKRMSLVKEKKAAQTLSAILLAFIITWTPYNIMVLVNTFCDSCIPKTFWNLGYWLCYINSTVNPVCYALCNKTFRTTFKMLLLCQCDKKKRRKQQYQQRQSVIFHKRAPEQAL
The experiment in a line: hM3 β-Lac potency assay (NFAT-Betalactamase reporter in CHO-K1 cells). As to conditions: CHO cells recombinantly expressing human M3, NFAT β-lactamase reporter; inhibition of 80 nM carbamyl choline signal, 4 h; IC50 converted to Ki by Cheng-Prusoff; read-out: Cell based β-lactamase M3 Ki. As to the method: M3 potency was determined in CHO-K1 cells transfected with the NFAT-Betalactamase gene. CHO (Chinese Hamster Ovary) cells recombinantly expressing the human muscarinic M3 receptor were transfected with the NFAT_β-Lac_Zeo plasmid. Cells were grown in DMEM with Glutamax-1, supplemented with 25 mM HEPES(Life Technologies 32430-027), containing 10% FCS (Foetal Calf Serum; Sigma F-7524), […] Sodium pyruvate (Sigma S-8636), NEM (non-Essential Amino Acids; Invitrogen 11140-035) and 200 μg/ml Zeocin (Invitrogen R250-01).
Cells were harvested for assay when they reached 80-90% confluency using enzyme free cell Dissociation Solution (Life technologies 13151-014) incubated with the cells for 5 min at 37° C. in an atmosphere containing 5% CO2. Detached cells were collected in warmed growth media and centrifuged at 2000 rpm for 10 min, washed in PBS (Phosphate Buffered Saline; Life Technologies 14190-094) and centrifuged again as just described. The cells were re-suspended at 2×10^5 cells/ml in growth medium (composition as described above). 20 μl of this cell suspension was added to each well of a 384 well black clear bottomed plate (Greiner Bio One 781091-PFI). The assay buffer used was PBS supplemented with 0.05% Pluronic F-127 (Sigma 9003-11-6) and 2.5% DMSO. Muscarinic M3 receptor signalling was stimulated using 80 nM carbamyl choline (Aldrich N240-9) incubated with the cells for 4 h at 37° C./5% CO2 and monitored at the end of the incubation period using a Tecan SpectraFluor+ plate reader (λ—excitation 405 nm, emission 450 nm and 503 nm). M3 receptor antagonists under test were added to the assay at the beginning of the 4 h incubation period and compound activity measured as the concentration dependent inhibition of the carbamyl choline induced signal. Inhibition curves were plotted and IC50 values generated using a 4-parameter sigmoid fit and converted to Ki values using the Cheng-Prusoff correction and the KD value for carbamyl choline in the assay.
A word on the Ki: it is a measure of affinity in units of concentration, obtained from inhibition or displacement. In the case of `CC(C)N(CC[C@H](c1ccccc1)c1cc(CCOc2ccc(CCNCc3ccc(O)c(F)c3)cc2)ccc1O)C(C)C` [Example 13, 2-[(1R)-3-(diisopropylamino)-1-phenylpropyl]-4-[2-(4-{2-[(3-fluoro-4-hydroxybenzyl)amino]ethyl}phenoxy)ethyl]phenol], the Ki was above 12.1 nM. The result for `CC(C)N(CC[C@H](c1ccccc1)c1cc(CCOc2ccc(CCNCc3cc(F)c(O)c(Cl)c3)cc2)ccc1O)C(C)C` [Example 20, 2-Chloro-4-{[2-(4-{2-[3-((1R)-3-diisopropylamino-1-phenyl-propyl)-4-hydroxy-phenyl]-ethoxy}-phenyl)-ethylamino]-methyl}-6-fluoro-phenol] reads above 5.89 nM. As for `CC(C)N(CC[C@H](c1ccccc1)c1cc(CCOc2ccc(CCNC(=O)c3ccc(O)cc3Cl)cc2)ccc1O)C(C)C` [Example 7, 2-Chloro-N-[2-(4-{2-[3-((1R)-3-diisopropylamino-1-phenyl-propyl)-4-hydroxy-phenyl]-ethoxy}-phenyl)-ethyl]-4-hydroxy-benzamide], the Ki is 0.727 nM. As for `CC(C)N(CC[C@H](c1ccccc1)c1cc(CCOc2ccc(CCNC(=O)c3ccc(O)c(F)c3)cc2)ccc1O)C(C)C` [Example 5, N-[2-(4-{2-[3-((1R)-3-Diisopropylamino-1-phenyl-propyl)-4-hydroxy-phenyl]-ethoxy}-phenyl)-ethyl]-3-fluoro-4-hydroxy-benzamide], the Ki was 5.36 nM. The result for `CC(C)N(CC[C@H](c1ccccc1)c1cc(CCOc2ccc(CCNC(=O)Cc3ccc(O)c(Cl)c3)cc2)ccc1O)C(C)C` [Example 2, 2-(3-Chloro-4-hydroxy-phenyl)-N-[2-(4-{2-[3-((1R)-3-diisopropylamino-1-phenyl-propyl)-4-hydroxy-phenyl]-ethoxy}-phenyl)-ethyl]-acetamide] reads 1.7 nM; that for `CC(C)N(CC[C@H](c1ccccc1)c1cc(CCOc2ccc(CCNCc3cccc(Cl)c3)cc2)ccc1O)C(C)C` [Example 10, 4-(2-{4-[2-(3-Chloro-benzylamino)-ethyl]-phenoxy}-ethyl)-2-((1R)-3-diisopropylamino-1-phenyl-propyl)-phenol], 7.73 nM. The same measure for `CC(C)N(CC[C@H](c1ccccc1)c1cc(CCOc2ccc(CCNC(=O)[C@]34C[C@H]5C[C@H](C[C@H](C5)C3)C4)cc2)ccc1O)C(C)C` [Example 6, (3S,5S,7S)-N-{2-[4-(2-{3-[(1R)-3-(diisopropylamino)-1-phenylpropyl]-4-hydroxyphenyl}ethoxy)phenyl]ethyl}adamantane-1-carboxamide]: 4.99 nM. The result for `CC(C)N(CC[C@H](c1ccccc1)c1cc(CCOc2ccc(CCNCc3cc(F)cc(F)c3O)cc2)ccc1O)C(C)C` [Example 22, 2-{[2-(4-{2-[3-((1R)-3-Diisopropylamino-1-phenyl-propyl)-4-hydroxy-phenyl]-ethoxy}-phenyl)-ethylamino]-methyl}-4,6-difluoro-phenol] reads 7.11 nM. Consider `CC(C)N(CC[C@H](c1ccccc1)c1cc(CCOc2ccc(CCNCc3cc(Cl)c(O)c(Cl)c3)cc2)ccc1O)C(C)C` [Example 16, 2,6-Dichloro-4-{[2-(4-{2-[3-((1R)-3-diisopropylamino-1-phenyl-propyl)-4-hydroxy-phenyl]-ethoxy}-phenyl)-ethylamino]-methyl}-phenol], for which the Ki was above 6.87 nM.

On to `CC(C)N(CC[C@H](c1ccccc1)c1cc(CCOc2ccc(CCNS(=O)(=O)c3ccc(O)cc3)cc2)ccc1O)C(C)C` [Example 27, N-[2-(4-{2-[3-((1R)-3-diisopropylamino-1-phenyl-propyl)-4-hydroxy-phenyl]-ethoxy}-phenyl)-ethyl]-4-hydroxy-benzenesulfonamide], for which the Ki turned out to be 1.32 nM. Regarding `CC(C)N(CC[C@H](c1ccccc1)c1cc(CCOc2ccc(CCNC3CCCCC3)cc2)ccc1O)C(C)C` [Example 11, 4-{2-[4-(2-Cyclohexylamino-ethyl)-phenoxy]-ethyl}-2-((1R)-3-diisopropylamino-1-phenyl-propyl)-phenol], the Ki is 6.06 nM.

In the case of `CC(C)N(CC[C@H](c1ccccc1)c1cc(CCOc2ccc(CCNCc3ccccc3)cc2)ccc1O)C(C)C` [Example 9, 4-{2-[4-(2-Benzylamino-ethyl)-phenoxy]-ethyl}-2-((1R)-3-diisopropylamino-1-phenyl-propyl)-phenol], the inhibition constant Ki turned out to be 0.785 nM. The same measure for `CC(C)N(CC[C@H](c1ccccc1)c1cc(CCOc2ccc(CCNC(=O)c3ccc(O)cc3)cc2)ccc1O)C(C)C` [Example 26, 4-Hydroxy-N-[2-(4-{2-[3-((1R)-3-diisopropylamino-1-phenyl-propyl)-4-hydroxy-phenyl]-ethoxy}-phenyl)-ethyl]-benzamide]: 0.705 nM; for `CC(C)N(CC[C@H](c1ccccc1)c1cc(CCOc2ccc(CCN(C)C)cc2)ccc1O)C(C)C` [Example 8, 2-((1R)-3-Diisopropylamino-1-phenyl-propyl)-4-{2-[4-(2-dimethylamino-ethyl)-phenoxy]-ethyl}-phenol]: 1.4 nM. Take `CC(C)N(CC[C@H](c1ccccc1)c1cc(CCOc2ccc(CCNC(=O)CC3CC3)cc2)ccc1O)C(C)C` [Example 4]: the Ki was 1.19 nM. The same measure for `CC(C)N(CC[C@H](c1ccccc1)c1cc(CCOc2ccc(CCNCc3ccc(O)c(Cl)c3)cc2)ccc1O)C(C)C` [Example 12, 2-chloro-4-[({2-[4-(2-{3-[(1R)-3-(diisopropylamino)-1-phenylpropyl]-4-hydroxyphenyl}ethoxy)phenyl]ethyl}amino)methyl]phenol]: above 12.5 nM. Regarding `CC(C)N(CC[C@H](c1ccccc1)c1cc(CCOc2ccc(CCNCc3cc(O)cc(O)c3)cc2)ccc1O)C(C)C` [Example 21, 5-{[2-(4-{2-[3-((1R)-3-Diisopropylamino-1-phenyl-propyl)-4-hydroxy-phenyl]-ethoxy}-phenyl)-ethylamino]-methyl}-benzene-1.3-diol], the inhibition constant (Ki) was above 5.75 nM. As to `CC(C)N(CC[C@H](c1ccccc1)c1cc(CCOc2ccc(CCNCc3cccc(O)c3F)cc2)ccc1O)C(C)C` [Example 19, 3-[({2-[4-(2-{3-[(1R)-3-(diisopropylamino)-1-phenylpropyl]-4-hydroxyphenyl}ethoxy)phenyl]ethyl}amino)methyl]-2-fluorophenol], the Ki stood at 2.69 nM. For `CC(C)N(CC[C@H](c1ccccc1)c1cc(CCOc2ccc(CCNCc3ccc(F)c(O)c3)cc2)ccc1O)C(C)C` [Example 23, 2-[(1R)-3-(diisopropylamino)-1-phenylpropyl]-4-[2-(4-{2-[(4-fluoro-3-hydroxybenzyl)amino]ethyl}phenoxy)ethyl]phenol], the Ki is above 6.66 nM. The same measure for `CC(C)N(CC[C@H](c1ccccc1)c1cc(CCOc2ccc(CCNCc3cc(F)c(O)c(F)c3)cc2)ccc1O)C(C)C` [Example 15, 4-{[2-(4-{2-[3-((1R)-3-Diisopropylamino-1-phenyl-propyl)-4-hydroxy-phenyl]-ethoxy}-phenyl)-ethylamino]-methyl}-2,6-difluoro-phenol]: 1.55 nM; for `CC(C)N(CC[C@H](c1ccccc1)c1cc(CCOc2ccc(CCNCc3cccc(O)c3)cc2)ccc1O)C(C)C` [Example 18, 2-((1R)-3-Diisopropylamino-1-phenyl-propyl)-4-(2-{4-[2-(3-hydroxy-benzylamino)-ethyl]-phenoxy}-ethyl)-phenol]: above 10.4 nM; for `CC(C)N(CC[C@H](c1ccccc1)c1cc(CCOc2ccc(CCNCc3cccc(F)c3O)cc2)ccc1O)C(C)C` [Example 14, 2-[(1R)-3-(diisopropylamino)-1-phenylpropyl]-4-[2-(4-{2-[(3-fluoro-2-hydroxybenzyl)amino]ethyl}phenoxy)ethyl]phenol]: 1.4 nM. Consider `CC(C)N(CC[C@H](c1ccccc1)c1cc(CCOc2ccc(CCNC(=O)c3ccc(O)c(Cl)c3)cc2)ccc1O)C(C)C` [Example 1, 3-Chloro-N-[2-(4-{2-[3-((1R)-3-diisopropylamino-1-phenyl-propyl)-4-hydroxy-phenyl]-ethoxy}-phenyl)-ethyl]-4-hydroxy-benzamide], for which the Ki came to 0.512 nM. The result for `CC(C)N(CC[C@H](c1ccccc1)c1cc(CCOc2ccc(CCNCc3cccc(O)c3Cl)cc2)ccc1O)C(C)C` [Example 17, 2-chloro-3-[({2-[4-(2-{3-[(1R)-3-(diisopropylamino)-1-phenylpropyl]-4-hydroxyphenyl}ethoxy)phenyl]ethyl}amino)methyl]phenol] reads 1 nM; that for `CC(C)N(CC[C@H](c1ccccc1)c1cc(CCOc2ccc(CCNC(=O)c3ccc(F)c(O)c3)cc2)ccc1O)C(C)C` [Example 25, 4-Fluoro-N-[2-(4-{2-[3-((1R)-3-diisopropylamino-1-phenyl-propyl)-4-hydroxy-phenyl]-ethoxy}-phenyl)-ethyl]-3-hydroxy-benzamide], 0.751 nM.

The values are drawn from patent publication US20090076152A1, “Novel Compounds Active as Muscarinic Receptor Antagonists” (priority 2007, published 2009).
